The test system of assay [1] is Acinetobacter baumannii. Kind of assay: Antibacterial activity against multidrug-resistant Acinetobacter baumannii 06-74 isolate by CLSI microdilution test. In kind it is functional.
For assay [2], the system named is Acinetobacter baumannii. In words: Antibacterial activity against multidrug-resistant Acinetobacter baumannii 06-74 isolate by time kill experiment. In kind it is functional, organism-based.
The subject of assay [3] is Acinetobacter baumannii. Kind of assay: Antibacterial activity against multidrug-resistant Acinetobacter baumannii 06-74 isolate assessed as regrowth bacterial load at 50 ug/ml administered as continuous infusion in vitro pharmacodynamic model after 3 to 4 hrs by time kill experiment. It is filed as functional.
In assay [4] the test system is Acinetobacter baumannii. Kind of assay: Antibacterial activity against multidrug-resistant Acinetobacter baumannii 06-74 isolate assessed as reduction in bacterial load at 50 ug/ml administered as continuous infusion in vitro pharmacodynamic model after 3 to 4 hrs by time kill experiment. In kind it is functional.
The subject of assay [5] is Acinetobacter baumannii. In words: Antibacterial activity against 6 ug/mL Colistin methanesulfonate exposed multidrug-resistant Acinetobacter baumannii 06-74 isolate by CLSI microdilution test. In kind it is functional, organism-based. (In general: In broth dilution the organism is exposed to a series of concentrations in liquid medium.)
Assay [6] deals with Acinetobacter baumannii. Kind of assay: Antibacterial activity against multidrug-resistant Acinetobacter baumannii 06-74 isolate assessed as reduction in bacterial load at 12 ug/ml first dose and 24 ug/ml of second dose administered 12 hrs after first dose as bolus dose in in vitro pharmacodynamic model vessel measured 2 to 3 hrs after last dose by time kill experiment. It is filed as functional, organism-based.

Assay [7] concerns Acinetobacter baumannii. In words: Antibacterial activity against 12 ug/mL Colistin methanesulfonate exposed multidrug-resistant Acinetobacter baumannii 06-74 isolate by CLSI microdilution test. In kind it is functional, organism-based.
In assay [8] the test system is Acinetobacter baumannii. In words: Antibacterial activity against 24 ug/mL bolus dose Colistin methanesulfonate exposed multidrug-resistant Acinetobacter baumannii 06-74 isolate by CLSI microdilution test. In kind it is functional, organism-based.
Assay [9] relates to Acinetobacter baumannii. In words: Antibacterial activity against multidrug-resistant Acinetobacter baumannii 06-74 isolate assessed as reduction in bacterial load at 3 ug/ml administered as bolus dose after 2 to 3 hrs by time kill experiment. In kind it is functional, organism-based.
The test system of assay [10] is Acinetobacter baumannii. In words: Antibacterial activity against multidrug-resistant Acinetobacter baumannii 06-74 isolate assessed as reduction in bacterial load at 24 ug/ml administered as bolus dose after 2 to 3 hrs by time kill experiment. It is filed as functional, organism-based.
The subject of assay [11] is Acinetobacter baumannii. Kind of assay: Antibacterial activity against multidrug-resistant Acinetobacter baumannii 06-74 isolate assessed as prevention of bacterial regrowth at 6 ug/ml first dose and 24 ug/ml of second dose administered 12 hrs after first dose as bolus dose in in vitro pharmacodynamic model vessel measured 2 to 3 hrs after last dose by time kill experiment. It is filed as functional, organism-based.

The test system of assay [12] is Acinetobacter baumannii. Kind of assay: Antibacterial activity against multidrug-resistant Acinetobacter baumannii 06-74 isolate assessed as reduction in bacterial load at 6 ug/ml administered as bolus dose after 2 to 3 hrs by time kill experiment. It is filed as functional, organism-based.
Assay [13] relates to Acinetobacter baumannii. In words: Antibacterial activity against multidrug-resistant Acinetobacter baumannii 06-74 isolate assessed as prevention of bacterial regrowth at 24 ug/ml first dose and 24 ug/ml of second dose administered 12 hrs after first dose as bolus dose in in vitro pharmacodynamic model vessel measured 2 to 3 hrs after last dose by time kill experiment. It is filed as functional, organism-based.

Assay [14] deals with Acinetobacter baumannii. In words: Antibacterial activity against 24 ug/mL Colistin methanesulfonate exposed multidrug-resistant Acinetobacter baumannii 06-74 isolate by CLSI microdilution test. In kind it is functional, organism-based.
Assay [15] concerns Acinetobacter baumannii. Kind of assay: Antibacterial activity against multidrug-resistant Acinetobacter baumannii 06-74 isolate assessed as reduction in bacterial load at 6 ug/ml first dose and 24 ug/ml of second dose administered 12 hrs after first dose as bolus dose in in vitro pharmacodynamic model vessel measured 2 to 3 hrs after last dose by time kill experiment. It is filed as functional, organism-based.

Assay [16] deals with Acinetobacter baumannii. In words: Antibacterial activity against multidrug-resistant Acinetobacter baumannii 06-74 isolate assessed as regrowth bacterial load at 3 ug/ml administered as bolus dose after 24 hrs by time kill experiment. In kind it is functional, organism-based.
Assay [17] has as its system Acinetobacter baumannii. In words: Antibacterial activity against multidrug-resistant Acinetobacter baumannii 06-74 isolate assessed as reduction in bacterial load at 3 ug/ml first dose and 24 ug/ml of second dose administered 12 hrs after first dose as bolus dose in in vitro pharmacodynamic model vessel measured 2 to 3 hrs after last dose by time kill experiment. It is filed as functional, organism-based.

In assay [18] the test system is Acinetobacter baumannii. Kind of assay: Antibacterial activity against multidrug-resistant Acinetobacter baumannii 06-74 isolate assessed as prevention of bacterial regrowth at 3 ug/ml first dose and 24 ug/ml of second dose administered 12 hrs after first dose as bolus dose in in vitro pharmacodynamic model vessel measured 2 to 3 hrs after last dose by time kill experiment. In kind it is functional, organism-based.

Assay [19] has as its system Acinetobacter baumannii. In words: Antibacterial activity against multidrug-resistant Acinetobacter baumannii 06-74 isolate assessed as regrowth bacterial load at 6 ug/ml administered as bolus dose after 24 hrs by time kill experiment. It is filed as functional, organism-based.
The test system of assay [20] is Acinetobacter baumannii. In words: Antibacterial activity against multidrug-resistant Acinetobacter baumannii 06-74 isolate assessed as prevention of bacterial regrowth at 12 ug/ml first dose and 24 ug/ml of second dose administered 12 hrs after first dose as bolus dose in in vitro pharmacodynamic model vessel measured 2 to 3 hrs after last dose by time kill experiment. It is filed as functional, organism-based.

Assay [21] has as its system Acinetobacter baumannii. In words: Antibacterial activity against multidrug-resistant Acinetobacter baumannii 06-74 isolate assessed as regrowth bacterial load at 24 ug/ml administered as bolus dose after 24 hrs by time kill experiment. In kind it is functional, organism-based.
Assay [22] has as its system Acinetobacter baumannii. Kind of assay: Antibacterial activity against multidrug-resistant Acinetobacter baumannii 06-74 isolate assessed as regrowth bacterial load at 12 ug/ml administered as bolus dose after 24 hrs by time kill experiment. It is filed as functional, organism-based.
For assay [23], the system named is Acinetobacter baumannii. In words: Antibacterial activity against 3 ug/mL Colistin methanesulfonate exposed multidrug-resistant Acinetobacter baumannii 06-74 isolate by CLSI microdilution test. It is filed as functional, organism-based.
For assay [24], the system named is Acinetobacter baumannii. Kind of assay: Antibacterial activity against multidrug-resistant Acinetobacter baumannii 06-74 isolate assessed as reduction in bacterial load at 12 ug/ml administered as bolus dose after 2 to 3 hrs by time kill experiment. It is filed as functional, organism-based.
In assay [25] the test system is Acinetobacter baumannii. Kind of assay: Antibacterial activity against multidrug-resistant Acinetobacter baumannii 06-74 isolate assessed as reduction in bacterial load at 24 ug/ml first dose and 24 ug/ml of second dose administered 12 hrs after first dose as bolus dose in in vitro pharmacodynamic model vessel measured 2 to 3 hrs after last dose by time kill experiment. It is filed as functional, organism-based.

By MIC is commonly meant the lowest concentration found to suppress growth.

In brackets after ≈: the same amount, converted by molar mass. Activity calls are given as the source filed them. The calls are words filed in the database; no cut-off is given here.

Take `C[C@@H](O)[C@H]1C(=O)N2C(C(=O)O)=C(SCCNC=N)C[C@H]12` [IMIPENEM ANHYDROUS]: in the assay on Acinetobacter baumannii [1], the MIC is no more than 1 µg/mL.

On to COLISTIMETHATE SODIUM, for which the minimum inhibitory concentration (MIC) is 2 µg/mL against Acinetobacter baumannii [1] and greater than 2050 µg/mL in the assay on Acinetobacter baumannii [2].

`CC1(C)S[C@@H]2[C@H](NC(=O)[C@H](N)c3ccccc3)C(=O)N2[C@H]1C(=O)O` [AMPICILLIN] came in with an MIC against Acinetobacter baumannii [1] of no less than 32 µg/mL.

The molecule `C[C@@H](O)[C@H]1C(=O)N2C(C(=O)O)=C(S[C@@H]3CN[C@H](C(=O)N(C)C)C3)[C@H](C)[C@H]12` [MEROPENEM] returned an MIC in the assay with Acinetobacter baumannii [1] of 1 µg/mL (≈ 2.61 µM).

In the case of `NCC[C@H](O)C(=O)N[C@@H]1C[C@H](N)[C@@H](O[C@H]2O[C@H](CN)[C@@H](O)[C@H](O)[C@H]2O)[C@H](O)[C@H]1O[C@H]1O[C@H](CO)[C@@H](O)[C@H](N)[C@H]1O` [AMIKACIN], the MIC against Acinetobacter baumannii [1] was no more than 2 µg/mL.

GENTAMICIN: the MIC against Acinetobacter baumannii [1] was greater than 16 µg/mL.

On to `O=C1CN(/N=C/c2ccc([N+](=O)[O-])o2)C(=O)N1` [NITROFURANTOIN], for which the minimal inhibitory concentration (MIC) against Acinetobacter baumannii [1] was no less than 512 µg/mL.

Take `CC(C)(O/N=C(\C(=O)N[C@@H]1C(=O)N2C(C(=O)[O-])=C(C[n+]3ccccc3)CS[C@H]12)c1csc(N)n1)C(=O)O` [CEFTAZIDIME]: the log10CFU/ml is 6.5 in the assay on Acinetobacter baumannii [3] and 3 in the assay on Acinetobacter baumannii [4]. Further, in the assay with Acinetobacter baumannii [1], the MIC is no less than 64 µg/mL.

As for COLISTIN, the MIC in the assay on Acinetobacter baumannii [5] is greater than 64 µg/mL; in the assay with Acinetobacter baumannii [7], 128 µg/mL; against Acinetobacter baumannii [8] it was greater than 128 µg/mL; in the assay with Acinetobacter baumannii [14] it was greater than 32 µg/mL; in the assay on Acinetobacter baumannii [23] it was 64 µg/mL. The result in the assay with Acinetobacter baumannii [6], in the assay with Acinetobacter baumannii [11], with Acinetobacter baumannii [13], in the assay on Acinetobacter baumannii [3], in the assay on Acinetobacter baumannii [15] and in the assay on Acinetobacter baumannii [17] was inactive. In addition, the result in the assay with Acinetobacter baumannii [18], in the assay on Acinetobacter baumannii [4], in the assay with Acinetobacter baumannii [20] and in the assay on Acinetobacter baumannii [25] was inactive. For the same molecule, the log10CFU/ml with Acinetobacter baumannii [9] was found to be 3; in the assay with Acinetobacter baumannii [10], 3; in the assay with Acinetobacter baumannii [12], 3; with Acinetobacter baumannii [16], 7; in the assay with Acinetobacter baumannii [19] it was 7; with Acinetobacter baumannii [21] it was 7. The results for the log10CFU/ml with Acinetobacter baumannii [22] and with Acinetobacter baumannii [24] were 7 and 3, respectively.

`C[C@H]1COc2c(N3CCN(C)CC3)c(F)cc3c(=O)c(C(=O)O)cn1c23.C[C@H]1COc2c(N3CCN(C)CC3)c(F)cc3c(=O)c(C(=O)O)cn1c23.O` [LEVOFLOXACIN] registered a minimum inhibitory concentration (MIC) with Acinetobacter baumannii [1] of no less than 8 µg/mL.

The values are drawn from ChEMBL document CHEMBL1143418, “Colistin methanesulfonate against multidrug-resistant Acinetobacter baumannii in an in vitro pharmacodynamic model” (2007).
